Results reported in ChEMBL document CHEMBL1146126 (Bioorg Med Chem Lett, 2006).

Legend:
[1] = target: T1, Prostaglandin E2 receptor EP4 subtype (Rattus norvegicus, UniProt P43114); test: Binding affinity to rat EP4 receptor expressed in HEK293 cells; type: cell-based
[2] = target: Prostaglandin E2 receptor EP2 subtype (Rattus norvegicus, UniProt Q62928); test: Binding affinity to rat EP2 receptor expressed in HEK293 cells; type: cell-based
[3] = target: Prostaglandin E2 receptor EP4 subtype (Rattus norvegicus) (UniProt P43114); test: Activity at rat EP4 transfected in HEK293 cells by cAMP accumulation compared to PGE2; type: functional, cell-based
[4] = target: T1, Prostaglandin E2 receptor EP4 subtype; test: Activity at rat EP4 transfected in HEK293 cells by cAMP accumulation; type: functional, cell-based
[5] = target: T2, Prostaglandin E2 receptor EP3 subtype (Homo sapiens, UniProt P43115); test: Binding affinity to human EP3 receptor expressed in HEK293 cells; type: cell-based
T2 sequence (P43115 whole entry): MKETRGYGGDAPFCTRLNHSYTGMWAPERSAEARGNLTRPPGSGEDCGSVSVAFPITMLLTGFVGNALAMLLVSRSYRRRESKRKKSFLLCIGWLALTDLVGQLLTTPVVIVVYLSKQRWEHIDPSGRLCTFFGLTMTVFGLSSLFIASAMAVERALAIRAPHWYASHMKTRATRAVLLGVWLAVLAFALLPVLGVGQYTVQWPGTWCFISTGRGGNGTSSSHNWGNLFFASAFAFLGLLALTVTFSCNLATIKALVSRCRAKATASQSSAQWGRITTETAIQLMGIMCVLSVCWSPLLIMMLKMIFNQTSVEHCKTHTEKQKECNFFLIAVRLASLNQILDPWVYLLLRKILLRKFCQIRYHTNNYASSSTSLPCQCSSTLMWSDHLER

[6] = target: T3, Prostaglandin E2 receptor EP1 subtype (Homo sapiens, UniProt P34995); test: Binding affinity to human EP1 receptor expressed in HEK293 cells; type: cell-based
T3 sequence (P34995 whole entry): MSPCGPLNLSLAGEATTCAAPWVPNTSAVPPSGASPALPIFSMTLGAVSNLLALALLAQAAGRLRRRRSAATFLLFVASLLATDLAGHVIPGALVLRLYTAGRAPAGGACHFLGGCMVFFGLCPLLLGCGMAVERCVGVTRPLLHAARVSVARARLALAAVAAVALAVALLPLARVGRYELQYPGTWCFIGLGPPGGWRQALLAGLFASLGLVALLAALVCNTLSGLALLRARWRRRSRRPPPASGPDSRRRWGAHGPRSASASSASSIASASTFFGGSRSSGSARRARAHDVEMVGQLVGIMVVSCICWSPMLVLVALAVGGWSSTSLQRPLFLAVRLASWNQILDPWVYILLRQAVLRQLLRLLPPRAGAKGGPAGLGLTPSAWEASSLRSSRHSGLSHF

[7] = Half life in iv dosed Sprague-Dawley rat; type: ADME, organism-based; conditions: in vivo
[8] = Oral bioavailability in Sprague-Dawley rat; type: ADME, organism-based; conditions: in vivo
[9] = Plasma clearance in iv dosed Sprague-Dawley rat
[10] = Half life in po dosed Sprague-Dawley rat; type: ADME, organism-based; conditions: in vivo
Rattus norvegicus [11] = test: Volume distribution in sc dosed Sprague-Dawley rat; type: ADME, organism-based; conditions: in vivo
[12] = Half life in sc dosed Sprague-Dawley rat; type: ADME, organism-based; conditions: in vivo
Rattus norvegicus [13] = test: Increase in total bone density at 30 mg/kg, sc 28 days post dose in ovariectomized osteopenic rat; type: functional; conditions: route subcutaneous
Rattus norvegicus [14] = test: Increase in cortical thickness at 10 mg/kg, sc 28 days post dose in ovariectomized osteopenic rat; type: functional; conditions: route subcutaneous
Rattus norvegicus [15] = test: Increase in total bone density at 10 mg/kg, sc 28 days post dose in ovariectomized osteopenic rat; type: functional; conditions: route subcutaneous
Rattus norvegicus [16] = test: Increase in total bone content at 10 mg/kg, sc 28 days post dose in ovariectomized osteopenic rat; type: functional; conditions: route subcutaneous
Rattus norvegicus [17] = test: Increase in cortical area at 10 mg/kg, sc 28 days post dose in ovariectomized osteopenic rat; type: functional; conditions: route subcutaneous
Rattus norvegicus [18] = test: Increase in total bone content at 30 mg/kg, sc 28 days post dose in ovariectomized osteopenic rat; type: functional; conditions: route subcutaneous
Rattus norvegicus [19] = test: Increase in cortical thickness at 30 mg/kg, sc 28 days post dose in ovariectomized osteopenic rat; type: functional; conditions: route subcutaneous
Rattus norvegicus [20] = test: Increase in cortical content at 10 mg/kg, sc 28 days post dose in ovariectomized osteopenic rat; type: functional; conditions: route subcutaneous
Rattus norvegicus [21] = test: Increase in cortical area at 30 mg/kg, sc 28 days post dose in ovariectomized osteopenic rat; type: functional; conditions: route subcutaneous
Rattus norvegicus [22] = test: Increase in cortical content at 30 mg/kg, sc 28 days post dose in ovariectomized osteopenic rat; type: functional; conditions: route subcutaneous

Prostaglandin E2 receptor EP2 subtype, sequence (Q62928 whole entry): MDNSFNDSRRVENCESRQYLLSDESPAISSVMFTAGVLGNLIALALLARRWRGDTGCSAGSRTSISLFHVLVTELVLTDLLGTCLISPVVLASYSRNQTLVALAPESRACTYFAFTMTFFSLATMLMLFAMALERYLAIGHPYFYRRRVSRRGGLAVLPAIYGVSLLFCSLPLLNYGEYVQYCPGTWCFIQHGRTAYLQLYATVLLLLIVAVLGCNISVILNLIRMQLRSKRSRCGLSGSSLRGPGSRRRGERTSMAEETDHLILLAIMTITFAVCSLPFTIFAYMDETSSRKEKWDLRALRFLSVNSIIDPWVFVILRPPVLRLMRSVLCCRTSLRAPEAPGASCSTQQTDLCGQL
Prostaglandin E2 receptor EP4 subtype (Rattus norvegicus), sequence (P43114 whole entry): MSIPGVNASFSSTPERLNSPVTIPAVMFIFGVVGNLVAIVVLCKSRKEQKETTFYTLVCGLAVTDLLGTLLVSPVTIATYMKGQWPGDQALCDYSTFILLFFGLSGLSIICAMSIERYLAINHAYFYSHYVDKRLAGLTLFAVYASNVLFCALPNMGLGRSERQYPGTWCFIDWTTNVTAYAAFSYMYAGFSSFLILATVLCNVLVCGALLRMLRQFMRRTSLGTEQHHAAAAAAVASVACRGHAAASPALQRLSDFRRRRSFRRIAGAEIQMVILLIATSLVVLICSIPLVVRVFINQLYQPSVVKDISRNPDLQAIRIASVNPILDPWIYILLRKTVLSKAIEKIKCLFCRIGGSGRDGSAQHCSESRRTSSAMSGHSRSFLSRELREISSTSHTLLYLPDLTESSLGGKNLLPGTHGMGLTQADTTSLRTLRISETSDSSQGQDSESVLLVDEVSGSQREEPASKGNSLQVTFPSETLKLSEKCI
T1 sequence (P43114 whole entry): as above

SMILES | IC50 [1] | IC50 [2] | Activity [3] | EC50 [4] | also measured
O=C(O)CCCCCCN1C(=O)CC[C@@H]1CC[C@@H](O)Cc1cccc(O)c1 | 1200 nM | > 3200 nM | 100% | 170 nM | 
O=C(O)CCCCCCN1C(=O)CCC1CCC(O)Cc1cccc(Cl)c1 (stereo not given) | 22 nM | > 3200 nM | 89% | 8.8 nM | 
O=C(O)CCCCCCN1C(=O)CC[C@@H]1CCC(O)Cc1ccccc1 (stereo not given in full) | 54 nM | > 3200 nM | 114% | 32.5 nM | half-life [7]: 6 min; IC50 [5]: > 3200 nM; bioavailability [8]: 21%; clearance [9]: 101 mL/min/kg; half-life [10]: 27 min; Vdss (Rattus norvegicus [11]): 0.4 L/kg; half-life [12]: 21 min; IC50 [6]: > 3200 nM
COCCc1cccc(C[C@H](O)CC[C@H]2CCC(=O)N2CCCCCCC(=O)O)c1 | 210 nM | > 3200 nM | 82% | 92 nM | 
O=C(O)CCCCCCN1C(=O)CC[C@@H]1CC[C@@H](O)Cc1cccc(C(F)(F)F)c1 |  | > 3200 nM | 75% | 13 nM | half-life [7]: 12 min; Activity (Rattus norvegicus [13]): 23.7%; bioavailability [8]: 17%; clearance [9]: 71 mL/min/kg; Activity (Rattus norvegicus [14]): 34.12%; Activity (Rattus norvegicus [15]): 18.73%; Activity (Rattus norvegicus [16]): 15.34%; half-life [10]: 25.2 min; Activity (Rattus norvegicus [17]): 21.93%; Vdss (Rattus norvegicus [11]): 0.46 L/kg; Activity (Rattus norvegicus [18]): 32.53%; Activity (Rattus norvegicus [19]): 124.19%; half-life [12]: 25.8 min; Activity (Rattus norvegicus [20]): 29.78%; Activity (Rattus norvegicus [21]): 66.92%; Activity (Rattus norvegicus [22]): 57.7%
O=C(O)CCCCCCN1C(=O)CCC1CCC(O)CCc1ccccc1 (stereo not given) | > 3200 nM | > 3200 nM |  |  | 
O=C(O)c1ccc(CCCN2C(=O)CCC2CCC(O)Cc2ccc(F)cc2)cc1 (stereo not given) | 2770 nM | > 3200 nM |  |  | IC50 [5]: > 3200 nM; IC50 [6]: > 3200 nM
N#Cc1cccc(C[C@H](O)CC[C@H]2CCC(=O)N2CCCCCCC(=O)O)c1 | 388 nM | > 3200 nM | 104% | 96 nM | 
O=C(O)c1ccc(CCCN2C(=O)CCC2CCC(O)Cc2ccccc2)cc1 (stereo not given) | 250 nM | > 3200 nM |  |  | IC50 [5]: > 3200 nM; IC50 [6]: > 3200 nM
O=C(O)CCCCCCN1C(=O)CC[C@@H]1CC[C@@H](O)Cc1cccc(-c2ccccc2)c1 | 337 nM | > 3200 nM | 101% | 195 nM | 
O=C(O)CCCCCCN1C(=O)CC[C@@H]1CC[C@@H](O)Cc1cccc(OC(F)(F)F)c1 | 59 nM | > 3200 nM | 78% | 50 nM | 
O=C(O)c1ccc(CCCN2C(=O)CCC2CCC(O)Cc2cccc(Cl)c2)cc1 (stereo not given) | 42 nM | > 3200 nM | 106% | 425 nM | IC50 [5]: > 3200 nM; IC50 [6]: > 3200 nM
O=C(O)CCCCCCN1C(=O)CC[C@@H]1CCC(O)Cc1cccc(Oc2ccccc2)c1 (stereo not given in full) |  | > 3200 nM |  |  | IC50 [5]: > 3200 nM; IC50 [6]: > 3200 nM
O=C(O)CCCCCCN1C(=O)CC[C@@H]1CC[C@@H](O)CCc1ccccc1 | 2710 nM | > 3200 nM |  |  | 
O=C(O)c1ccc(CCCN2C(=O)CCC2CCC(O)Cc2cccc(F)c2)cc1 (stereo not given) | 126 nM | > 3200 nM |  |  | 

More lines, main results first:

IC50 [1] | IC50 [2] | Activity [3] | EC50 [4] | SMILES | also measured
17 nM | 640 nM | 97% | 2.4 nM | O=C(O)c1ccc(CCCN2C(=O)CC[C@@H]2CCC(O)Cc2cccc(F)c2)s1 (stereo not given in full) | 
62 nM | > 3200 nM | 89% | 18 nM | COCc1cccc(C[C@H](O)CC[C@H]2CCC(=O)N2CCCCCCC(=O)O)c1 | IC50 [5]: > 2000 nM; IC50 [6]: > 3200 nM
70 nM | 1200 nM | 70% | 22 nM | O=C(O)c1ccc(CCCN2C(=O)CC[C@@H]2CC[C@@H](O)Cc2ccc(F)cc2)s1 | 
70 nM | > 3200 nM | 105% | 105 nM | O=C(O)c1ccc(CCCN2C(=O)CC[C@@H]2CC[C@@H](O)Cc2cccc(C(F)(F)F)c2)cc1 | 
220 nM | > 3200 nM |  |  | O=C(O)c1ccc(CCCN2C(=O)CCC2CCC(O)Cc2cccc(Oc3ccccc3)c2)cc1 (stereo not given) | 
47 nM | > 3200 nM | 97% | 440 nM | O=C(O)c1ccc(CCCN2C(=O)CCC2CCC(O)Cc2cccc(-c3ccccc3)c2)cc1 (stereo not given) | 
50 nM | 135 nM | 95% | 203 nM | O=C(O)c1ccc(CCCN2C(=O)CC[C@@H]2CCC(O)Cc2cccc(-c3ccccc3)c2)s1 (stereo not given in full) | IC50 [5]: 20000 nM; IC50 [6]: 18600 nM
65 nM | > 3200 nM | 73% | 500 nM | O=C(O)c1ccc(CCCN2C(=O)CC[C@@H]2CCC(O)Cc2ccc3ccccc3c2)s1 (stereo not given in full) | 
140 nM | 1200 nM | 82% | 275 nM | CCc1ccc(CC(O)CC[C@H]2CCC(=O)N2CCCc2ccc(C(=O)O)s2)cc1 (stereo not given in full) | 
80 nM | 86 nM | 90% | 40 nM | O=C(O)c1ccc(CCCN2C(=O)CC[C@@H]2CCC(O)Cc2ccc(Cl)cc2)s1 (stereo not given in full) | IC50 [5]: > 3200 nM; IC50 [6]: > 3200 nM
1600 nM | 125 nM |  |  | O=C(O)c1ccc(CCCN2C(=O)CC[C@@H]2CCC(O)Cc2ccccc2-c2ccccc2)s1 (stereo not given in full) | 
1.1 nM | 188 nM | 70% | 0.6 nM | O=C(O)c1ccc(CCCN2C(=O)CC[C@@H]2CC[C@@H](O)Cc2cccc(Cl)c2)s1 | 
21 nM | 690 nM | 88% | 1.7 nM | O=C(O)c1ccc(CCCN2C(=O)CC[C@@H]2CCC(O)Cc2ccccc2)s1 (stereo not given in full) | 
 | 483 nM | 102% |  | O=C(O)c1ccc(CCCN2C(=O)CC[C@@H]2CC[C@@H](O)Cc2cccc(C(F)(F)F)c2)s1 | half-life [7]: 12 min; bioavailability [8]: 1%; clearance [9]: 70 mL/min/kg; half-life [10]: 52.2 min; Vdss (Rattus norvegicus [11]): 0.49 L/kg; half-life [12]: 18 min
